Values quoted from earlier work as cited in patent US11707272B2, “Packaged antimicrobial medical device having improved shelf life and method of preparing same” (ETHICON, LLC, priority 2012, dated 2023).

Tested on: S. aureus
Conditions: measured in a suitable growth medium; as described by Bhargava, H. et al, American Journal of Infection Control, June 1996

Oc1cc(Cl)ccc1Oc1ccc(Cl)cc1Cl [2,4,4′-trichloro-2′-hydroxydiphenyl ether]
minimum inhibitory concentration (MIC) against S. aureus: 0.01 ppm
